The source made the active and inactive calls. No cut-off for these calls is given here.
Experiments:
Acetylcholinesterase [1] = target: T1, Acetylcholinesterase (Homo sapiens, UniProt P22303); assay: Inhibition of AChE (unknown origin)
Cholinesterase [2] = target: T2, Cholinesterase (Homo sapiens, UniProt P06276); assay: Inhibition of human serum BChE using butyrylthiocholine iodide as substrate preincubated for 30 mins followed by substrate addition and measured after 30 mins by DTNB based Ellman's method
T2 sequence (P06276 whole entry): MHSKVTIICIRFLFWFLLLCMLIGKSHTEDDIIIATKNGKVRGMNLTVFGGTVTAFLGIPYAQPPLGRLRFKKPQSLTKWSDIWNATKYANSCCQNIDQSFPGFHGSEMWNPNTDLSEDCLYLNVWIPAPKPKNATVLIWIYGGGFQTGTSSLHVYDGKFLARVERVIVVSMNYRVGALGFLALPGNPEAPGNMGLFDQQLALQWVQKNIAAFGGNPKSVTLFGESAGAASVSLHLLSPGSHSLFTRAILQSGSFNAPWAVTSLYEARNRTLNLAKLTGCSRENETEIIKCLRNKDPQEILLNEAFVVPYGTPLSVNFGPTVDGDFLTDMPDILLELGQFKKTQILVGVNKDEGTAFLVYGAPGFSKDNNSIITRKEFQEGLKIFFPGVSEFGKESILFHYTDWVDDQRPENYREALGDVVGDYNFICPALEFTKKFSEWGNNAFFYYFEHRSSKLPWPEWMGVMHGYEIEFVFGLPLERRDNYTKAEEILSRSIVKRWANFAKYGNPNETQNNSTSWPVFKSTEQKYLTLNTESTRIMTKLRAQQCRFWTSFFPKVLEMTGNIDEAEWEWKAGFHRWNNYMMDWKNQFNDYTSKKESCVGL

Beta-secretase 1 [3] = target: T3, Beta-secretase 1 (Homo sapiens, UniProt P56817); assay: Inhibition of human BACE-1 measured after 2 hrs by FRET assay
T3 sequence (P56817 whole entry): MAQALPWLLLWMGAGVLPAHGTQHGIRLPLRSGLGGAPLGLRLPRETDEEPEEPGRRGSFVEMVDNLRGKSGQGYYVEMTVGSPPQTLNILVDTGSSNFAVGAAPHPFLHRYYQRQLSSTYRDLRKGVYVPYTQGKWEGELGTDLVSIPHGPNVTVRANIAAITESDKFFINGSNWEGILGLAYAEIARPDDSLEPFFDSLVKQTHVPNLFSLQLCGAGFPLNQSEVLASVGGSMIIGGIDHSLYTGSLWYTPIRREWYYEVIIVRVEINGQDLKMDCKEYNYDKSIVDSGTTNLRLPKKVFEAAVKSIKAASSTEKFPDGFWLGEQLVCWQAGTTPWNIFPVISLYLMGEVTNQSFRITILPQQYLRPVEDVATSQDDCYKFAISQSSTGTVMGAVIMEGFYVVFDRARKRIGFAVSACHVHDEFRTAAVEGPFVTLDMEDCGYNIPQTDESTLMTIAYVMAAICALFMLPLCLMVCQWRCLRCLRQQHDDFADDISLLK

Acetylcholinesterase [4] = target: T1, Acetylcholinesterase; assay: Inhibition of human erythrocyte AChE using acetylthiocholine iodide as substrate preincubated for 30 mins followed by substrate addition and measured after 30 mins by DTNB based Ellman's method
Beta-secretase 1 [5] = target: T3, Beta-secretase 1; assay: Inhibition of BACE-1 in human SH-SY5Y cells transfected with human APP695 measured after 24 hrs by ELISA; type: cell-based
[6] = Cytotoxicity against human SH-SY5Y cells by MTT assay; type: toxicity, cell-based
Beta-secretase 1 [7] = target: T3, Beta-secretase 1; assay: Inhibition of C-terminal 10-His tagged recombinant human BACE-1 using Mca-Ser-Glu-Val-Asn-Leu-Asp-Ala-Glu-Phe-Arg-Lys(Dnp)-Arg-Arg-NH2 as substrate pretreated for 10 mins followed by substrate addition and measured every 5 mins for 120 mins
PC-12 = assay: Neuroprotective activity against amyloid beta (1 to 42 residues) induced cell damage in rat PC12 cells at 100 uM by MTT assay relative to control; type: functional
[8] = target: Amyloid-beta precursor protein (Homo sapiens) (UniProt P05067); assay: Inhibition of self induced amyloid beta (1 to 42 residues) (unknown origin) aggregation at 10 uM by thioflavin T based fluorescence analysis relative to control
Sequence of Amyloid-beta precursor protein (Homo sapiens) (P05067 whole entry, the tested form may be a part): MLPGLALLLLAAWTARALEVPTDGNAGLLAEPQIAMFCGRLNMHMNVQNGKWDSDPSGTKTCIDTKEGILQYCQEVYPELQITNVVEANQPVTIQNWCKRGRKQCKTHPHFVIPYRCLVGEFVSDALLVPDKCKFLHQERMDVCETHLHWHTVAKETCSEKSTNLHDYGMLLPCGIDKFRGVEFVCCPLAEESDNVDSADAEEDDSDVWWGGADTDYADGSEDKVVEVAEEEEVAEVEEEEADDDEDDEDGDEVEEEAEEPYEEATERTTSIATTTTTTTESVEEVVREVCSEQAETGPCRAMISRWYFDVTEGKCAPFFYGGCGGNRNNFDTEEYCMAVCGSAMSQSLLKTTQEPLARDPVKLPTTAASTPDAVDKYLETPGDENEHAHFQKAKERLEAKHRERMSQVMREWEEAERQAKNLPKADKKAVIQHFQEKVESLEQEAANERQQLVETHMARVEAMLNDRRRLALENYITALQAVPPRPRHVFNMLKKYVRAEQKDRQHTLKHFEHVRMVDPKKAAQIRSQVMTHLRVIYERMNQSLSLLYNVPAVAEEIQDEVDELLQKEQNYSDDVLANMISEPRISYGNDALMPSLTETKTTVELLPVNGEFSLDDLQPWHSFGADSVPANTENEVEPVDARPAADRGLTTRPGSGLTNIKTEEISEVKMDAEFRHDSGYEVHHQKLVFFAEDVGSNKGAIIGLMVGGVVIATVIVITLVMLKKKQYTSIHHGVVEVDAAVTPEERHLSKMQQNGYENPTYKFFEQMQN

Beta-secretase 1 [9] = target: T3, Beta-secretase 1; assay: Inhibition of human BACE-1 by FRET assay
Acetylcholinesterase [10] = target: T1, Acetylcholinesterase; assay: Inhibition of AChE (unknown origin) at 10 uM relative to control
Cholinesterase [11] = target: T2, Cholinesterase; assay: Inhibition of BChE (unknown origin) at 10 uM relative to control
[12] = Antioxidant activity assessed as DPPH radical scavenging activity incubated for 30 mins in dark by UV/visible spectrophotometric analysis; type: functional
[13] = target: Cholinesterase (Equus caballus) (UniProt P81908); assay: Inhibition of horse serum BChE at 100 uM preincubated for 10 mins followed by substrate addition and measured after 15 mins by Ellman's method relative to control; conditions: time 25.0 min
Sequence of Cholinesterase (Equus caballus) (P81908 whole entry): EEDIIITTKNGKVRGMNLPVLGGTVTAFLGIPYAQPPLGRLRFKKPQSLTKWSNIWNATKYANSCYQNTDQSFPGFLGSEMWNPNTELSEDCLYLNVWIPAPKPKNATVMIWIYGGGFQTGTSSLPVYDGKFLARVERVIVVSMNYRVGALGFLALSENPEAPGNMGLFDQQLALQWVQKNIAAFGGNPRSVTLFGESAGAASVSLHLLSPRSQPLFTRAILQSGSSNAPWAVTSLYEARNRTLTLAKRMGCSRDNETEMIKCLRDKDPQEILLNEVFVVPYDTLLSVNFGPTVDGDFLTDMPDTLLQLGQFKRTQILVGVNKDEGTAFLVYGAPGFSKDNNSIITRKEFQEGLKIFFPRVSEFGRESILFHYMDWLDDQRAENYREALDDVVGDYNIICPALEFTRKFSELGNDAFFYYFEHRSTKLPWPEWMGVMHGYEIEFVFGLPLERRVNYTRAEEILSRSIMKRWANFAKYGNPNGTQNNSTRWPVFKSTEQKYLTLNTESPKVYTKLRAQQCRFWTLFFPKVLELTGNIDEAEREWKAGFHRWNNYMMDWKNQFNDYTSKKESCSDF

[14] = Drug concentration in male Wistar rat brain homogenate at 10 mg/kg, po measured after 4 days; type: ADME, organism-based; conditions: time 4 day, read-out: Ct
Cholinesterase [15] = target: T2, Cholinesterase; assay: Inhibition of human BChE
[16] = Drug concentration in male Wistar rat brain homogenate at 20 mg/kg, po measured after 4 days; type: ADME, organism-based; conditions: time 4 day, read-out: Ct
Beta-secretase 1 [17] = target: T3, Beta-secretase 1; assay: Inhibition of human BACE-1
Acetylcholinesterase [18] = target: T1, Acetylcholinesterase; assay: Inhibition of human AChE
in vitro = conditions: PAMPA
[19] = target: Amyloid-beta precursor protein (Homo sapiens) (UniProt P05067); assay: Inhibition of amyloid beta (1 to 42 residues) (unknown origin) aggregation assessed as reduction in massive oligomers measured after 3 days by AFM analysis; conditions: time 3.0 day
[20] = target: Amyloid-beta precursor protein (Homo sapiens) (UniProt P05067); assay: Inhibition of amyloid beta (1 to 42 residues) (unknown origin) aggregation assessed as reduction in fibrils measured after 3 days by AFM analysis; conditions: time 3.0 day

T1 sequence (P22303 whole entry): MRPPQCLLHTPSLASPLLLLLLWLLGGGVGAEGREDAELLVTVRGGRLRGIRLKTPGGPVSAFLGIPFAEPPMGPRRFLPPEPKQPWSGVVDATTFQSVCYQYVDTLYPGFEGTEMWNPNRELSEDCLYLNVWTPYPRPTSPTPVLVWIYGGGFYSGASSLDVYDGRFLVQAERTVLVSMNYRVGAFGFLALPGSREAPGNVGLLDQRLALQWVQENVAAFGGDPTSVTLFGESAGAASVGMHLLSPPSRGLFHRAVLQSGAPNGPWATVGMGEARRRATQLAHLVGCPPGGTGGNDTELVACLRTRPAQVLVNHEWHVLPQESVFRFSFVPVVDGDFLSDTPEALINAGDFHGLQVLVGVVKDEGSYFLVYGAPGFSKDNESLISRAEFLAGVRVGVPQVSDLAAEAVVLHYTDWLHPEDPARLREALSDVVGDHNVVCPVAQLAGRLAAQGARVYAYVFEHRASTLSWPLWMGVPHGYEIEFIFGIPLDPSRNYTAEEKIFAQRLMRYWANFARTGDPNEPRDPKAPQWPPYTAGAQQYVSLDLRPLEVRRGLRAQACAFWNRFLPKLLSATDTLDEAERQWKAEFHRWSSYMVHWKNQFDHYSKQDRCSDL

## O=C(CCN1CCCCC1)Nc1ccc2nc(-c3cc4ccccc4[nH]3)[nH]c(=O)c2c1
Acetylcholinesterase [1]
  IC50: 21 nM

## COc1cc2ncnc(N3CCN(c4ccc(F)cc4)CC3)c2cc1OC
Cholinesterase [2]
  IC50: > 10000 nM
Beta-secretase 1 [3]
  IC50: 1470 nM
Acetylcholinesterase [4]
  IC50: 1040 nM

## COc1cc2ncnc(N3CCN(Cc4ccc(Cl)cc4)CC3)c2cc1OC
Cholinesterase [2]
  IC50: > 10000 nM
Beta-secretase 1 [3]
  IC50: 1650 nM
Acetylcholinesterase [4]
  IC50: 921 nM

## COc1cc2ncnc(N3CCN(c4ccccc4[N+](=O)[O-])CC3)c2cc1OC
Cholinesterase [2]
  IC50: > 10000 nM
Beta-secretase 1 [3]
  IC50: 1820 nM
Acetylcholinesterase [4]
  IC50: 914 nM

## CC1c2cc(Oc3ccccc3)ccc2N=C(N)N1CCCC(=O)N(Cc1ccnn1C)C1CCCCC1 (centres undefined)
Beta-secretase 1 [5]
  IC50: 140 nM
[6]
  IC50: 11800 nM
Beta-secretase 1 [7]
  IC50: 380 nM

## COc1cc2c(Nc3ccc(C(=O)/C=C/c4nc(C)c(C)nc4C)cc3)ncnc2c(OC)c1OC
PC-12
  Activity: 77%
[8]
  inhibition: 26.7%

## FC(F)(F)c1ccc(-c2nnc(NC3CCN(Cc4ccccc4)CC3)o2)cc1
Beta-secretase 1 [9]
  IC50: 146 nM

## C#CCN(C)c1nc(NC2CCCCC2)c2ccc(Cl)cc2n1
Acetylcholinesterase [10]
  inhibition: 3%
Cholinesterase [11]
  inhibition: 3%

## COc1cc2ncnc(N3CCN(c4ccc(Br)cc4)CC3)c2cc1OC
Cholinesterase [2]
  IC50: > 10000 nM
Beta-secretase 1 [3]
  IC50: 1710 nM
Acetylcholinesterase [4]
  IC50: 973 nM

## COc1cc2ncnc(N3CCN(Cc4ccc(C)cc4)CC3)c2cc1OC
Cholinesterase [2]
  IC50: > 10000 nM
Beta-secretase 1 [3]
  IC50: 1430 nM
Acetylcholinesterase [4]
  IC50: 1020 nM

## COc1cc2ncnc(N3CCN(Cc4ccc(F)cc4)CC3)c2cc1OC
Cholinesterase [2]
  IC50: > 10000 nM
Beta-secretase 1 [3]
  IC50: 2920 nM
Acetylcholinesterase [4]
  IC50: 932 nM

## Cn1c(N/N=C/c2cccc(Cl)c2Cl)nc2ccccc2c1=O
[12]
  IC50: > 100000 nM

## COc1cc2ncnc(N3CCN(C)CC3)c2cc1OC
Cholinesterase [2]
  IC50: > 10000 nM
Beta-secretase 1 [3]
  IC50: 3280 nM
Acetylcholinesterase [4]
  IC50: 1270 nM

## COc1cc2ncnc(N3CCN(c4ccccc4)CC3)c2cc1OC
Cholinesterase [2]
  IC50: > 10000 nM
Beta-secretase 1 [3]
  IC50: 1310 nM
Acetylcholinesterase [4]
  IC50: 1010 nM

## COc1cc2ncnc(N3CCN(c4ccc(C)cc4)CC3)c2cc1OC
Cholinesterase [2]
  IC50: > 10000 nM
Beta-secretase 1 [3]
  IC50: 1880 nM
Acetylcholinesterase [4]
  IC50: 1170 nM

## Cc1ccccc1-n1c(SCC(=O)N/N=C/c2ccc(Br)cc2)nc2ccccc2c1=O
[13]
  inhibition: 6.8%

## c1ccc(CN2CCN(c3nc(-c4ccccc4)nc4ccccc34)CC2)cc1
[14]
  concentration at 96 h: 15 ng/mL
Cholinesterase [15]
  IC50: > 10000 nM
[16]
  concentration at 96 h: 54 ng/mL
Beta-secretase 1 [17]
  IC50: 254000 nM
Acetylcholinesterase [18]
  IC50: 191 nM

## COc1cc2ncnc(N3CCN(C(c4ccccc4)c4ccccc4)CC3)c2cc1OC
Cholinesterase [2]
  IC50: > 10000 nM
Beta-secretase 1 [3]
  IC50: 662 nM
Acetylcholinesterase [4]
  IC50: 436 nM
In vitro
  Papp at 18 h, 25 ug/ml: 6.28 ×10⁻⁶ cm/s

## COc1cc(/C=C/C(=O)CC(=O)/C=C/c2ccc(O)c(OC)c2)ccc1O
[19]
  inhibition: Active
[20]
  inhibition: Active

## COc1cc2ncnc(N3CCN(C(C)=O)CC3)c2cc1OC
Cholinesterase [2]
  IC50: > 10000 nM
Beta-secretase 1 [3]
  IC50: 3660 nM
Acetylcholinesterase [4]
  IC50: 1190 nM

## COc1cc2ncnc(N3CCN(c4ccc([N+](=O)[O-])cc4)CC3)c2cc1OC
Cholinesterase [2]
  IC50: > 10000 nM
Beta-secretase 1 [3]
  IC50: 729 nM
Acetylcholinesterase [4]
  IC50: 481 nM
In vitro
  Papp at 18 h, 25 ug/ml: 4.81 ×10⁻⁶ cm/s

## COc1cc2ncnc(N3CCN(c4ccccn4)CC3)c2cc1OC
Cholinesterase [2]
  IC50: > 10000 nM
Beta-secretase 1 [3]
  IC50: 1560 nM
Acetylcholinesterase [4]
  IC50: 1150 nM
